Measured values taken from patent publication US6395541B1, “Methods for the identification of compounds capable of inhibiting HIV-1 viral replication employing murine cell lines expressing human topoisomerase I” (The Rockefeller University, priority 1996, dated 2002).

Legend:
[1] = test system: HIV-1; conditions: cited from earlier work
[2] = test system: HIV-1; conditions: AIDS patients; cited from earlier work
[3] = biological target: T1, topo I (Homo sapiens, UniProt P11387); assay: Reverse transcriptase assay, linear cDNA synthesis from 5'/3' HIV-1 RNA template in presence of topo I; format: biochemical; conditions: HIV-1 RT with topo I 0.16 unit; CPT 400, 40, 4 and 0 μM; concentration dependent
T1 sequence (P11387 1-765): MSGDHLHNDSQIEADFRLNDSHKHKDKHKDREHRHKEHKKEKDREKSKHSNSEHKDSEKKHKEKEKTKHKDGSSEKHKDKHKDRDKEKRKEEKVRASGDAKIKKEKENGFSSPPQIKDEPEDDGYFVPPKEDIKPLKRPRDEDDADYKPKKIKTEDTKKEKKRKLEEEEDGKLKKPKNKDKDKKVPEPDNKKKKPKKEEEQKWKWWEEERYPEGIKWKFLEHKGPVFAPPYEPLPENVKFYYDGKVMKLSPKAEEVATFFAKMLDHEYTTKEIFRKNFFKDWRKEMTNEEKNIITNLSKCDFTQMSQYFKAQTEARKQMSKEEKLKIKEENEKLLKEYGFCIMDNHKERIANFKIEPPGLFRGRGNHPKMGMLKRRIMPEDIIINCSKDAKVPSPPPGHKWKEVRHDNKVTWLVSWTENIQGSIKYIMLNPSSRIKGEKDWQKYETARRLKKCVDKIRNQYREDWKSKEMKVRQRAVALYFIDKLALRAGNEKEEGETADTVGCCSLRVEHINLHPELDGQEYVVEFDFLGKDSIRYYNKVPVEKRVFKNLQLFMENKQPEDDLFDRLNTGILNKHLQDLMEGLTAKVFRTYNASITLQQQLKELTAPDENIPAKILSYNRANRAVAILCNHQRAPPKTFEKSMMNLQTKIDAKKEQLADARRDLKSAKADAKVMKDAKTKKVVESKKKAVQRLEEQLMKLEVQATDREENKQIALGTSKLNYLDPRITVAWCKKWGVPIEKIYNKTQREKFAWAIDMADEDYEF
Description: Influence of cellular topo I on HIV-1 RT activity. […] An end-labeled primer (*) was employed to initiate cDNA synthesis and would be expected to result in a product of 1481 nucleotides (nt). […] Phosphorescence image analysis of cDNA products following agarose gel electrophoresis. The presence or absence of topo I is indicated by + and −, respectively. Similarly the presence or absence of CPT is indicated by + and −.
To analyze the influence of topo I on linear cDNA synthesis, the template containing both the 5′ and 3′ ends of HIV-1 RNA was used. cDNA synthesis expected to result in a product of 1481 nucleotides was initiated using a nef gene primer end-labeled with [θ-^32P]ATP (5′-[sequence]-3′; nucleotides 9002-9027). Reaction mixtures obtained 300 ng of RNA template in 50 μl of 50 Mm TrisHCL (pH 8.0) containing 150 Mm KCl, 5 Mm MgCl^2, 5 Mm dithiothreitol, 0.5 Mm EGTA, 0.4 unit of RNasin (Promega), 0.1 unit of HIV-1 RT (Seikagaku, Kogyo, Tokyo), 100 ng of primer, 250 μM dNTPs, bovine serum albumin at 0.1 mg/ml, GST-P15 at 0.8 μg/ml 10 μl of glutathione beads (50% vol/vol; Pharmacia), and topo I at final concentrations of 0.16, 0.032 and 0.0064 unit. Samples were incubated at 37° C. for 25 min. […] Gels were dried onto nylon membranes and analyzed with a Fuji BAS2000 phosphorescence imager.

[4] = biological target: T1, topo I; assay: Reverse transcriptase assay, ssDNA synthesis and strand transfer in presence of topo I; format: biochemical; conditions: topo I 0.16 unit per 50 μl; CPT 400, 40 and 4 μM; concentration-dependent
Description: Analysis of ssDNA synthesis and strand transfer. […] Schematic representation of two RNA templates employed. […] The 3′RNA represents the 3′end of the HIV-1 RNA and contains the R region and the poly(A) tail. ssDNA synthesis was initiated by an end labeled primer (*) corresponding to the primer binding site (PBS) in the 5′RNA. After strand transfer to the 3′RNA, this would be expected to result in a cDNA product of 867 nucleotides. […] Phosphorescence image analysis of the cDNA product after agarose gel electrophoresis. The presence and absence of 5′RNA and 3′RNA templates are indicated by + and −, respectively. The effects of CPT at concentrations of 400, 40 and 4 μM are indicated by +. Topo I was used at the final concentration of 0.16 unit per 50 μl in all experiments.
Reaction mixtures obtained 300 ng of RNA template in 50 μl of 50 Mm TrisHCL (pH 8.0) containing 150 Mm KCl, 5 Mm MgCl^2, 5 Mm dithiothreitol, 0.5 Mm EGTA, 0.4 unit of RNasin (Promega), 0.1 unit of HIV-1 RT (Seikagaku, Kogyo, Tokyo), 100 ng of primer, 250 μM dNTPs, bovine serum albumin at 0.1 mg/ml, GST-P15 at 0.8 μg/ml 10 μl of glutathione beads (50% vol/vol; Pharmacia), and topo I at final concentrations of 0.16, 0.032 and 0.0064 unit. Samples were incubated at 37° C. for 25 min. […] Gels were dried onto nylon membranes and analyzed with a Fuji BAS2000 phosphorescence imager. […] Reaction products were analyzed as above.

[5] = test system: HIV-1 IIIB strain; assay: Southern hybridization of DNA from HIV-1 infected MT2 cells with drug treatment; format: cell-based; conditions: HIV-1 IIIB 0.1 m.o.i., 72 hrs, drugs 0.01-10 μg/ml
Protocol: FIG. 5. Southern hybridization of DNA from HIV-1 infected cells with drug treatment. […] cells, MT2, infected with the HIV-1 IIIB strain were treated with AZT, CPT or TAN at concentrations (from right to left) AZT 0.01, 0.1, 1.0, 10 μg/ml, CPT 0.01, 0.1, 1.0 μg/ml, TAN 0.01, 0.1, 1.0 μg/ml respectively.
MT2 cells were incubated for 2 hours with HIV-1 IIIB strain (Ratner et al., 1985 Nature 313: 277-284) at 0.1 m.o.i. with drugs. Concentrations ranged from no drugs 0,0, AZT 0.01, 0.1, 1, 10 μg/mi, CPT 0.01, 0. 1, 1 μg/ml TAN 0.01, 0. 1, 1 μg/ml, CPT 0.1, 1, 10 μg/ml, TAN 0.1, 1, 10 μg/mi respectively (FIG. 5). After washing with PBS 3 times, cells were incubated again for 72 hrs with or without concentration of drugs as indicated, then lysed with 1% SDS, 10 Mm Tris HCl (pH 8.0), 5 Mm EDTA, 1M NaCl(Hirt's method. Following overnight incubation at 4 C., large molecule of DNA were precipitated by centrifugation. Supernatants were treated with 100 μg/ml of protease K at 56° C. for 2 hrs and after treated with phenol-chloroform, small molecules of DNA were precipitated and subjected to southern hybridization. Transferred nylon membrane (Schleicher & Schuell) were probed with (α-^32P) dCTP-random-primed-labeled primer.

CC(C)c1nc(CN(C)C(=O)N[C@H](C(=O)N[C@@H](Cc2ccccc2)C[C@H](O)[C@H](Cc2ccccc2)NC(=O)OCc2cncs2)C(C)C)cs1 [ABT-538]
antiviral activity in vitro [1]: potent antiviral activity | CD4 lymphocyte counts [2]: rise substantially | plasma HIV-1 levels [2]: decrease exponentially

CC[C@@]1(O)C(=O)OCc2c1cc1n(c2=O)Cc2cc3ccccc3nc2-1 [CPT, camptothecin]
cDNA synthesis (1481 nucleotide product) [3]: inhibited | cDNA product of 867 nucleotides (ssDNA synthesis and strand transfer) [4]: inhibited | HIV-replication in HIV-infected cells, Southern blot analysis [5]: reduced HIV-replication
